# Measurements taken from patent US20210220328A1, “PYRROLE DERIVATIVES AS ACC INHIBITORS” (Almirall, S.A., priority 2017, published 2021).
# Test system: immortalized human sebocyte cell line, SZ95
# Test: In vitro assay of inhibition of lipid synthesis
# Format: cell-based
# Details: 48 h, SZ95 sebocytes
# Protocol: In Vitro Assay of Inhibition of Lipid Synthesis
# To evaluate the inhibition of lipid synthesis, the immortalized human sebocyte cell line, SZ95 (stablished by Zouboulis, C. C. et al J Invest Dermatol 1999; 113:1011-20), was treated with arachidonic acid (AA) in presence or absence of compound. Lipids were detected by using a lipid sensing fluorophore.
# Compounds were dissolved in dimethylsulfoxide (DMSO) 100%. Then the stocks were serial diluted 1/3 in DMSO 100%, and this battery of solutions were diluted 1/10 in culture medium, to minimize the percentage of the DMSO over cells.
# 10 k cells were plated in 384 well microtiter plates and incubated at 37° C. and 5% CO2 in DMEM/F12 supplemented with 10% FBS, 1.25 ng/ml of rhEGF and GA-1000 before of compound and stimulus addition. After 24 h, compounds dissolved in culture media were added over cells, diluting the solutions prepared 1/40 in the final volume of the assay. Then, cells and compounds were preincubated for 30 min at 37° C. and 5% CO2. After this prior incubation, the lipid synthesis was induced by 75 μM of AA final solution, preparing a solution 10× in culture media. Finally, SZ95 treated were incubated for 48 h at 37° C. and 5% CO2.
# Neutral lipids were measured using AdipoRed™, purchased from LONZA. To do that, cells were washed with PBS and incubated with a solution of AdipoRed™ (final dilution 1/80 in PBS) for 30 min at room temperature. After the staining process, the fluorescence intensity (FI) was quantified using a fluorescence plate reader (excitation 485 nm; emission 535).
# Activity of compounds were calculated as % of inhibition considering the maximal fluorescence for AA-stimulated cells and the minimum fluorescence for unstimulated cells as controls.
# [1] = lipid synthesis induced by 75 μM arachidonic acid, AdipoRed fluorescence, Table 1
# [2] = 75 μM arachidonic acid, AdipoRed, Table 2, finer classes for compounds with IC50 less than 250 nM
Structure (SMILES),IC50 [1] [nM],IC50 [2] [nM]
"CCCCCCCCCCCCCc1c[nH]c(C(=O)OCC(F)(F)F)c1Cl [Example 108, 2,2,2-Trifluoroethyl 3-chloro-4-tridecyl-1H-pyrrole-2-carboxylate]",250 to 1000,–
"CCCCCCCCCCc1c[nH]c(C(=O)O)c1Cl [Example 56, 3-Chloro-4-decyl-1H-pyrrole-2-carboxylic acid]",< 250,50 to 100
"CCCCCCCCCCCCCc1c[nH]c(C(=O)OC2CCCCC2)c1F [Example 25, Cyclohexyl 3-fluoro-4-tridecyl-1H-pyrrole-2-carboxylate]",1000 to 5000,–
"CCCCCCCCCCCCc1c[nH]c(C(=O)OCCOCCOCC)c1F [Example 16, 2-(2-Ethoxyethoxy)ethyl 4-dodecyl-3-fluoro-1H-pyrrole-2-carboxylate]",< 250,50 to 100
"CCCCCCCCCCCCC(F)COc1c[nH]c(C(=O)O)c1Cl (stereo not shown) [Example 99, 3-Chloro-4-((2-fluorotetradecyl)oxy)-1H-pyrrole-2-carboxylic acid]",< 250,100 to 250
"CCCCCCCCCCCCCc1c[nH]c(C(=O)OC(C)OC(=O)OCCOC)c1F (stereo not shown) [Example 49, 1-(((2-Methoxyethoxy)carbonyl)oxy)ethyl 3-fluoro-4-tridecyl-1H-pyrrole-2-carboxylate]",< 250,< 50
"CCCCCCCCCCCCCc1c[nH]c(C(=O)OCCCCCCO)c1F [Example 36, 6-Hydroxyhexyl 3-fluoro-4-tridecyl-1H-pyrrole-2-carboxylate]",< 250,100 to 250
"CCCCCCCCCCCCCc1c[nH]c(C(=O)OC(CO)CO)c1F [Example 41, 1,3-Dihydroxypropan-2-yl 3-fluoro-4-tridecyl-1H-pyrrole-2-carboxylate]",< 250,< 50
"CCCCCCCCCCCCOc1c[nH]c(C(=O)OCC(F)(F)F)c1Cl [Example 81, 2,2,2-Trifluoroethyl 3-chloro-4-(dodecyloxy)-1H-pyrrole-2-carboxylate]",< 250,100 to 250
"CCCCCCCCCCCCCCOc1c[nH]c(C(=O)O)c1Cl [Example 90, 3-Chloro-4-(tetradecyloxy)-1H-pyrrole-2-carboxylic acid]",< 250,50 to 100
"CCCCCCCCCC(F)(F)COc1c[nH]c(C(=O)O)c1F [Example 98, 4-((2,2-Difluoroundecyl)oxy)-3-fluoro-1H-pyrrole-2-carboxylic acid]",250 to 1000,–
"CCCCCCCCCCOc1c[nH]c(C(=O)O)c1Cl [Example 78, 3-Chloro-4-(decyloxy)-1H-pyrrole-2-carboxylic acid]",< 250,< 50
"CCCCCCCCCCCCCc1c[nH]c(C(=O)OCCCCO)c1F [Example 34, 4-Hydroxybutyl 3-fluoro-4-tridecyl-1H-pyrrole-2-carboxylate]",< 250,100 to 250
"CCCCCCCCCCCCc1cc(F)c(C(=O)O)[nH]1 [Example 55, 5-Dodecyl-3-fluoro-1H-pyrrole-2-carboxylic acid]",< 250,50 to 100
"CCCCCCCCCCCCCc1c[nH]c(C(=O)OC)c1F [Example 22, Methyl 3-fluoro-4-tridecyl-1H-pyrrole-2-carboxylate]",1000 to 5000,–
"CCCCCCCCCCCCOc1c[nH]c(C(=O)OCc2oc(=O)oc2C)c1Cl [Example 88, (5-Methyl-2-oxo-1,3-dioxol-4-yl)methyl 3-chloro-4-(dodecyloxy)-1H-pyrrole-2-carboxylate]",< 250,< 50
"CCCCCCCCCCCCc1c[nH]c(C(=O)OC(C)OC(=O)OC(C)C)c1F (stereo not shown) [Example 17, 1-((Isopropoxycarbonyl)oxy)ethyl 4-dodecyl-3-fluoro-1H-pyrrole-2-carboxylate]",< 250,< 50
"CCCCCCCCCCCCCc1c[nH]c(C(=O)OC(C)OC(=O)OC2CCCCC2)c1F (stereo not shown) [Example 47, 1-(((Cyclohexyloxy)carbonyl)oxy)ethyl 3-fluoro-4-tridecyl-1H-pyrrole-2-carboxylate]",< 250,50 to 100
"CCCCCCCCCCCCCCc1cc(F)c(C(=O)O)[nH]1 [Example 121, 3-Fluoro-5-tetradecyl-1H-pyrrole-2-carboxylic acid]",< 250,< 50
"CCCCCCCCCCCCOc1c[nH]c(C(=O)OCCCCCCCCCO)c1Cl [Example 82, 9-Hydroxynonyl 3-chloro-4-(dodecyloxy)-1H-pyrrole-2-carboxylate]",< 250,100 to 250
"CCCCCCCCCCCCCc1c[nH]c(C(=O)OCCOCCOCC)c1F [Example 43, 2-(2-Ethoxyethoxy)ethyl 3-fluoro-4-tridecyl-1H-pyrrole-2-carboxylate]",< 250,< 50

Structure (SMILES),IC50 [1] [nM],IC50 [2] [nM]
"CCOCCCCCCCCCOc1c[nH]c(C(=O)O)c1Cl [Example 100, 3-Chloro-4-((9-ethoxynonyl)oxy)-1H-pyrrole-2-carboxylic acid]",250 to 1000,–
"CCCCCCCCCCCCCCCc1c[nH]c(C(=O)O)c1F [Example 53, 3-Fluoro-4-pentadecyl-1H-pyrrole-2-carboxylic acid]",< 250,< 50
"CCCCCCCCCCCCc1cc(Cl)c(C(=O)OCC(O)CO)[nH]1 (stereo not shown) [Example 118, 2,3-Dihydroxypropyl 3-chloro-5-dodecyl-1H-pyrrole-2-carboxylate]",250 to 1000,–
"CCOCCCCCCCCCCCCc1c[nH]c(C(=O)O)c1F [Example 92, 4-(12-Ethoxydodecyl)-3-fluoro-1H-pyrrole-2-carboxylic acid]",< 250,< 50
"CCCCCCCCCCCCc1c[nH]c(C(=O)OC(C)OC(=O)OCCOCCOCC)c1F (stereo not shown) [Example 19, 4-Oxo-3,5,8,11-tetraoxatridecan-2-yl 4-dodecyl-3-fluoro-1H-pyrrole-2-carboxylate]",< 250,< 50
"CCCCCCCCCCCCCc1c[nH]c(C(=O)O)c1Br [Example 68, 3-Bromo-4-tridecyl-1H-pyrrole-2-carboxylic acid]",250 to 1000,–
"CCCCCCCCCCCCOc1c[nH]c(C(=O)OCCO)c1 [Example 6, 2-Hydroxyethyl 4-(dodecyloxy)-1H-pyrrole-2-carboxylate]",1000 to 5000,–
"CCCCCCCCCCCCOc1c[nH]c(C(=O)OC(C)OC(=O)OCCCO)c1Cl (stereo not shown) [Example 87, 1-(((3-Hydroxypropoxy)carbonyl)oxy)ethyl 3-chloro-4-(dodecyloxy)-1H-pyrrole-2-carboxylate]",< 250,< 50
"CCCCCCCCCCCCCc1c[nH]c(C(=O)OC(C)OC(=O)OCc2ccccc2)c1F (stereo not shown) [Example 48, 1-(((Benzyloxy)carbonyl)oxy)ethyl 3-fluoro-4-tridecyl-1H-pyrrole-2-carboxylate]",< 250,< 50
"CCCCCCCCCCCCCc1c[nH]c(C(=O)OC(C)C)c1F [Example 23, Isopropyl 3-fluoro-4-tridecyl-1H-pyrrole-2-carboxylate]",> 5000,–
"CCCCCCCCCCCCCCC(=O)c1c[nH]c(C(=O)O)c1F [Example 91, 3-Fluoro-4-pentadecanoyl-1H-pyrrole-2-carboxylic acid]",1000 to 5000,–
"CCCCCCCCCCCCCc1c[nH]c(C(=O)OC(C)OC(=O)OCCCO)c1F (stereo not shown) [Example 50, 1-(((3-Hydroxypropoxy)carbonyl)oxy)ethyl 3-fluoro-4-tridecyl-1H-pyrrole-2-carboxylate]",< 250,< 50
"CCCCCCCCCCCCCc1c[nH]c(C(=O)OC(C)OC(=O)OCCOCCOCC)c1F (stereo not shown) [Example 51, 4-Oxo-3,5,8,11-tetraoxatridecan-2-yl 3-fluoro-4-tridecyl-1H-pyrrole-2-carboxylate]",< 250,< 50
"CCCCCCCCCCCCOc1c[nH]c(C(=O)OC(C)OC(=O)OC(C)C)c1Cl (stereo not shown) [Example 85, 1-((Isopropoxycarbonyl)oxy)ethyl 3-chloro-4-(dodecyloxy)-1H-pyrrole-2-carboxylate]",< 250,< 50
"CCCCCCCCCCCOc1c[nH]c(C(=O)O)c1Cl [Example 79, 3-Chloro-4-(undecyloxy)-1H-pyrrole-2-carboxylic acid]",< 250,< 50
"CCCCCCCCCOc1c[nH]c(C(=O)O)c1Cl [Example 77, 3-chloro-4-(nonyloxy)-1H-pyrrole-2-carboxylic acid]",< 250,50 to 100
"CCCCCCCCCCCCCc1c[nH]c(C(=O)OC(C)OC(=O)OC(C)C)c1F (stereo not shown) [Example 44, 1-((Isopropoxycarbonyl)oxy)ethyl 3-fluoro-4-tridecyl-1H-pyrrole-2-carboxylate]",< 250,< 50
"CCCCCCCCCCCCCc1c[nH]c(C(=O)OCCO)c1F [Example 32, 2-Hydroxyethyl 3-fluoro-4-tridecyl-1H-pyrrole-2-carboxylate]",250 to 1000,–
"CCCCCCCCCCCCCCCCc1c[nH]c(C(=O)O)c1Cl [Example 63, 3-Chloro-4-hexadecyl-1H-pyrrole-2-carboxylic acid]",250 to 1000,–
"CCCCCCCCCCCc1c[nH]c(C(=O)O)c1Cl [Example 57, 3-Chloro-4-undecyl-1H-pyrrole-2-carboxylic acid]",< 250,< 50
